# Reference: the supplement of paper PMC10307832
# Tests used:
# Assay in all cases: relative viability (nuclei count vs DMSO), 5 days (fraction); higher = more cells survive
# BEN = tested on: BEN
# Method in brief: (§1)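 Relative viability equals treated-well nuclei counts divided by vehicle-well nuclei counts. Counts came from 4× images of lung cancer cell lines grown in 1536-well plates for 5 days after pin-tool dosing on the day after seeding. Dosing used one drug alone or a fixed anchor-drug dose plus five library-drug doses (not always all listed) in √10 steps, and values are medians of duplicate plates.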
# CAL-12T = tested on: CAL-12T
# Method in brief: as §1
# EKVX = tested on: EKVX
# Method in brief: as §1
# HCC-15 = tested on: HCC-15
# Method in brief: as §1
# HCC-366 = tested on: HCC-366
# Method in brief: as §1
# HCC-44 = tested on: HCC-44
# Method in brief: as §1
# LCLC-103H = tested on: LCLC-103H
# Method in brief: as §1
# LOU-NH91 = tested on: LOU-NH91
# Method in brief: as §1
# NCI-H1355 = tested on: NCI-H1355
# Method in brief: as §1
# NCI-H1395 = tested on: NCI-H1395
# Method in brief: as §1
# NCI-H1437 = tested on: NCI-H1437
# Method in brief: as §1
# NCI-H1563 = tested on: NCI-H1563
# Method in brief: as §1
# NCI-H1650 = tested on: NCI-H1650
# Method in brief: as §1
# NCI-H1651 = tested on: NCI-H1651
# Method in brief: as §1
# NCI-H1734 = tested on: NCI-H1734
# Method in brief: as §1
# NCI-H1755 = tested on: NCI-H1755
# Method in brief: as §1
# NCI-H1975 = tested on: NCI-H1975
# Method in brief: as §1
# NCI-H2023 = tested on: NCI-H2023
# Method in brief: as §1
# NCI-H2085 = tested on: NCI-H2085
# Method in brief: as §1
# NCI-H358 = tested on: NCI-H358
# Method in brief: as §1
# NCI-H441 = tested on: NCI-H441
# Method in brief: as §1
# NCI-H460 = tested on: NCI-H460
# Method in brief: as §1
# NCI-H838 = tested on: NCI-H838
# Method in brief: as §1
structure (smiles),measurement,setting,value
C[C@@H]1CN(CC(=O)Nc2ccc3c(c2)Cc2cccc(-c4cc(=O)cc(N5CCOCC5)o4)c2S3)C[C@H](C)O1 + CS(=O)(=O)N1CCN(Cc2cc3nc(-c4cccc5[nH]ncc45)nc(N4CCOCC4)c3s2)CC1 [Pictilisib] (partner 1 µM),relative viability,BEN; first compound 0.04 µM,0.556
same,relative viability,BEN; first compound 0.1265 µM,0.537
same,relative viability,BEN; first compound 0.4 µM,0.601
same,relative viability,BEN; first compound 4 µM,0.513
same,relative viability,CAL-12T; first compound 0.04 µM,0.396
same,relative viability,CAL-12T; first compound 0.1265 µM,0.487
same,relative viability,CAL-12T; first compound 0.4 µM,0.396
same,relative viability,CAL-12T; first compound 4 µM,0.378
same,relative viability,EKVX; first compound 0.04 µM,0.412
same,relative viability,EKVX; first compound 0.1265 µM,0.444
same,relative viability,EKVX; first compound 0.4 µM,0.414
same,relative viability,EKVX; first compound 4 µM,0.428
same,relative viability,HCC-15; first compound 0.04 µM,0.815
same,relative viability,HCC-15; first compound 0.1265 µM,0.649
same,relative viability,HCC-15; first compound 0.4 µM,0.796
same,relative viability,HCC-15; first compound 4 µM,0.636
same,relative viability,HCC-366; first compound 0.04 µM,0.151
same,relative viability,HCC-366; first compound 0.1265 µM,0.142
same,relative viability,HCC-366; first compound 0.4 µM,0.138
same,relative viability,HCC-366; first compound 4 µM,0.112
same,relative viability,HCC-44; first compound 0.04 µM,0.616
same,relative viability,HCC-44; first compound 0.1265 µM,0.573
same,relative viability,HCC-44; first compound 0.4 µM,0.465
same,relative viability,HCC-44; first compound 4 µM,0.287
same,relative viability,LCLC-103H; first compound 0.04 µM,0.547
same,relative viability,LCLC-103H; first compound 0.1265 µM,0.557
same,relative viability,LCLC-103H; first compound 0.4 µM,0.582
same,relative viability,LCLC-103H; first compound 4 µM,0.668
same,relative viability,LOU-NH91; first compound 0.04 µM,0.554
same,relative viability,LOU-NH91; first compound 0.1265 µM,0.529
same,relative viability,LOU-NH91; first compound 0.4 µM,0.505
same,relative viability,LOU-NH91; first compound 4 µM,0.539
same,relative viability,NCI-H1355; first compound 0.04 µM,0.229
same,relative viability,NCI-H1355; first compound 0.1265 µM,0.43
same,relative viability,NCI-H1355; first compound 0.4 µM,0.418
same,relative viability,NCI-H1355; first compound 4 µM,0.331
same,relative viability,NCI-H1395; first compound 0.04 µM,0.66
same,relative viability,NCI-H1395; first compound 0.1265 µM,0.556
same,relative viability,NCI-H1395; first compound 0.4 µM,0.502
same,relative viability,NCI-H1395; first compound 4 µM,0.559
same,relative viability,NCI-H1437; first compound 0.04 µM,0.416
same,relative viability,NCI-H1437; first compound 0.1265 µM,0.45
same,relative viability,NCI-H1437; first compound 0.4 µM,0.339
same,relative viability,NCI-H1437; first compound 4 µM,0.477
same,relative viability,NCI-H1563; first compound 0.04 µM,0.616
same,relative viability,NCI-H1563; first compound 0.1265 µM,0.661
same,relative viability,NCI-H1563; first compound 0.4 µM,0.702
same,relative viability,NCI-H1563; first compound 4 µM,0.711
same,relative viability,NCI-H1650; first compound 0.04 µM,0.32
same,relative viability,NCI-H1650; first compound 0.1265 µM,0.605
same,relative viability,NCI-H1650; first compound 0.4 µM,0.651
same,relative viability,NCI-H1650; first compound 4 µM,0.621
same,relative viability,NCI-H1651; first compound 0.04 µM,0.59
same,relative viability,NCI-H1651; first compound 0.1265 µM,0.491
same,relative viability,NCI-H1651; first compound 0.4 µM,0.612
same,relative viability,NCI-H1651; first compound 4 µM,0.568
same,relative viability,NCI-H1734; first compound 0.04 µM,0.526
same,relative viability,NCI-H1734; first compound 0.1265 µM,0.489
same,relative viability,NCI-H1734; first compound 0.4 µM,0.468
same,relative viability,NCI-H1734; first compound 4 µM,0.487
same,relative viability,NCI-H1755; first compound 0.04 µM,0.381
same,relative viability,NCI-H1755; first compound 0.1265 µM,0.386
same,relative viability,NCI-H1755; first compound 0.4 µM,0.433
same,relative viability,NCI-H1755; first compound 4 µM,0.388
same,relative viability,NCI-H1975; first compound 0.04 µM,0.32
same,relative viability,NCI-H1975; first compound 0.1265 µM,0.263
same,relative viability,NCI-H1975; first compound 0.4 µM,0.279
same,relative viability,NCI-H1975; first compound 4 µM,0.298
same,relative viability,NCI-H2023; first compound 0.04 µM,0.115
same,relative viability,NCI-H2023; first compound 0.1265 µM,0.262
same,relative viability,NCI-H2023; first compound 0.4 µM,0.197
same,relative viability,NCI-H2023; first compound 4 µM,0.198
same,relative viability,NCI-H2085; first compound 0.04 µM,0.476
same,relative viability,NCI-H2085; first compound 0.1265 µM,0.484
same,relative viability,NCI-H2085; first compound 0.4 µM,0.425
same,relative viability,NCI-H2085; first compound 4 µM,0.492
same,relative viability,NCI-H358; first compound 0.04 µM,0.355
same,relative viability,NCI-H358; first compound 0.1265 µM,0.343
same,relative viability,NCI-H358; first compound 0.4 µM,0.3
same,relative viability,NCI-H358; first compound 4 µM,0.247
same,relative viability,NCI-H441; first compound 0.04 µM,0.526
same,relative viability,NCI-H441; first compound 0.1265 µM,0.447
same,relative viability,NCI-H441; first compound 0.4 µM,0.43
same,relative viability,NCI-H441; first compound 4 µM,0.372
same,relative viability,NCI-H460; first compound 0.04 µM,0.258
same,relative viability,NCI-H460; first compound 0.1265 µM,0.404
same,relative viability,NCI-H460; first compound 0.4 µM,0.279
same,relative viability,NCI-H460; first compound 4 µM,0.346
same,relative viability,NCI-H838; first compound 0.04 µM,0.472
same,relative viability,NCI-H838; first compound 0.1265 µM,0.402
same,relative viability,NCI-H838; first compound 0.4 µM,0.451
same,relative viability,NCI-H838; first compound 4 µM,0.29
CC(C)Oc1cc(Nc2nc(N[C@@H](C)c3ccc(F)cn3)ncc2Cl)n[nH]1 [AZ23] + CS(=O)(=O)N1CCN(Cc2cc3nc(-c4cccc5[nH]ncc45)nc(N4CCOCC4)c3s2)CC1 [Pictilisib] (partner 1 µM),relative viability,BEN; first compound 0.01 µM,0.527
same,relative viability,BEN; first compound 0.03162 µM,0.639
same,relative viability,BEN; first compound 0.3162 µM,0.653
same,relative viability,CAL-12T; first compound 0.03162 µM,0.418
same,relative viability,CAL-12T; first compound 0.3162 µM,0.406
same,relative viability,EKVX; first compound 0.01 µM,0.481
same,relative viability,EKVX; first compound 0.03162 µM,0.466
same,relative viability,EKVX; first compound 0.3162 µM,0.444
same,relative viability,HCC-15; first compound 0.01 µM,0.968
same,relative viability,HCC-15; first compound 0.03162 µM,0.73
same,relative viability,HCC-15; first compound 0.3162 µM,0.782
same,relative viability,HCC-366; first compound 0.01 µM,0.14
same,relative viability,HCC-366; first compound 0.03162 µM,0.145
same,relative viability,HCC-366; first compound 0.3162 µM,0.147
same,relative viability,HCC-44; first compound 0.01 µM,0.727
same,relative viability,HCC-44; first compound 0.03162 µM,0.629
same,relative viability,HCC-44; first compound 0.3162 µM,0.572
same,relative viability,LCLC-103H; first compound 0.01 µM,0.571
same,relative viability,LCLC-103H; first compound 0.03162 µM,0.555
same,relative viability,LCLC-103H; first compound 0.3162 µM,0.533
same,relative viability,LOU-NH91; first compound 0.01 µM,0.483
same,relative viability,LOU-NH91; first compound 0.03162 µM,0.525
same,relative viability,LOU-NH91; first compound 0.3162 µM,0.528
same,relative viability,NCI-H1355; first compound 0.01 µM,0.367
same,relative viability,NCI-H1355; first compound 0.03162 µM,0.46
same,relative viability,NCI-H1355; first compound 0.3162 µM,0.401
same,relative viability,NCI-H1395; first compound 0.03162 µM,0.666
same,relative viability,NCI-H1395; first compound 0.3162 µM,0.577
same,relative viability,NCI-H1437; first compound 0.01 µM,0.374
same,relative viability,NCI-H1437; first compound 0.03162 µM,0.389
same,relative viability,NCI-H1437; first compound 0.3162 µM,0.46
same,relative viability,NCI-H1563; first compound 0.01 µM,0.682
same,relative viability,NCI-H1563; first compound 0.03162 µM,0.653
same,relative viability,NCI-H1563; first compound 0.3162 µM,0.674
same,relative viability,NCI-H1650; first compound 0.01 µM,0.553
same,relative viability,NCI-H1650; first compound 0.03162 µM,0.585
same,relative viability,NCI-H1650; first compound 0.3162 µM,0.514
same,relative viability,NCI-H1651; first compound 0.01 µM,0.443
same,relative viability,NCI-H1651; first compound 0.03162 µM,0.542
same,relative viability,NCI-H1651; first compound 0.3162 µM,0.665
same,relative viability,NCI-H1734; first compound 0.01 µM,0.429
same,relative viability,NCI-H1734; first compound 0.03162 µM,0.543
same,relative viability,NCI-H1734; first compound 0.3162 µM,0.487
same,relative viability,NCI-H1755; first compound 0.01 µM,0.41
same,relative viability,NCI-H1755; first compound 0.03162 µM,0.478
same,relative viability,NCI-H1755; first compound 0.3162 µM,0.464
same,relative viability,NCI-H1975; first compound 0.01 µM,0.307
same,relative viability,NCI-H1975; first compound 0.03162 µM,0.327
same,relative viability,NCI-H1975; first compound 0.3162 µM,0.298
same,relative viability,NCI-H2023; first compound 0.03162 µM,0.248
same,relative viability,NCI-H2023; first compound 0.3162 µM,0.192
same,relative viability,NCI-H2085; first compound 0.01 µM,0.556
same,relative viability,NCI-H2085; first compound 0.03162 µM,0.563
same,relative viability,NCI-H2085; first compound 0.3162 µM,0.446
same,relative viability,NCI-H358; first compound 0.01 µM,0.404
same,relative viability,NCI-H358; first compound 0.03162 µM,0.329
same,relative viability,NCI-H358; first compound 0.3162 µM,0.324
same,relative viability,NCI-H441; first compound 0.01 µM,0.658
same,relative viability,NCI-H441; first compound 0.03162 µM,0.601
same,relative viability,NCI-H441; first compound 0.3162 µM,0.457
same,relative viability,NCI-H460; first compound 0.01 µM,0.3
same,relative viability,NCI-H460; first compound 0.03162 µM,0.567
same,relative viability,NCI-H460; first compound 0.3162 µM,0.348
same,relative viability,NCI-H838; first compound 0.01 µM,0.467
same,relative viability,NCI-H838; first compound 0.03162 µM,0.464
same,relative viability,NCI-H838; first compound 0.3162 µM,0.51
